Measured values: patent publication US11731943B2, “Therapeutic compounds, compositions and methods of use thereof” (priority 2016, dated 2023)
pIC50, pKi: −log10 of the molar value.

Legend:
[1] = target: isolated recombinant JAK1 kinase domain (Homo sapiens (Human), UniProt P23458); assay: JAK1 enzyme assay (Caliper LabChip, Ki); type: biochemical; details: read-out: JAK1 Ki
Summary of the method: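 Recombinant human JAK1 kinase domain phosphorylating an N-terminally 5-carboxyfluorescein-labelled JAK3-derived peptide, 30 min at 22 °C, stopped with EDTA (50 mM final). Phosphorylated fraction of total peptide read by Caliper LabChip mobility shift; Ki from Morrison tight-binding fit corrected for ATP competition (Ki=Ki,app/(1+[ATP]/Km,app)).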

[2] = target: isolated recombinant JAK2 kinase domain (Homo sapiens (Human), UniProt O60674); assay: JAK2 enzyme assay (Caliper LabChip, Ki); type: biochemical
Chain of isolated recombinant JAK2 kinase domain (O60674 849-1124): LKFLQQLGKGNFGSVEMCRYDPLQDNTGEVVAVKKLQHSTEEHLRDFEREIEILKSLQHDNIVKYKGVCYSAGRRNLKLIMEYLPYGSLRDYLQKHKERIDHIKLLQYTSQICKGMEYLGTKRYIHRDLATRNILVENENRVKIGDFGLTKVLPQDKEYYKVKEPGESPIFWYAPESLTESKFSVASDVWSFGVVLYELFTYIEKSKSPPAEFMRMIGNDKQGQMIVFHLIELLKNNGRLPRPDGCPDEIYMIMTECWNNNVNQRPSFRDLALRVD
Summary of the method: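 Recombinant human JAK1 or JAK2 kinase domain phosphorylating a 5-carboxyfluorescein-labelled JAK3-derived peptide; 30 min at 22 °C, stopped with EDTA (50 mM final). Phosphorylated product measured as a fraction of total peptide by Caliper LabChip mobility shift.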

[3] = tested on: JAK1-dependent STAT6 phosphorylation downstream of IL-13 stimulation in BEAS-2B human bronchial epithelial cells; assay: JAK1 pathway assay in BEAS-2B cells (IL-13-pSTAT6, MSD); type: cell-based; details: Homo sapiens, BEAS-2B, BEAS-2B cells, IL-13 stimulation; read-out: IL-13 p-STAT6 BEAS-2B IC50

Chain of isolated recombinant JAK1 kinase domain (P23458 875-1153): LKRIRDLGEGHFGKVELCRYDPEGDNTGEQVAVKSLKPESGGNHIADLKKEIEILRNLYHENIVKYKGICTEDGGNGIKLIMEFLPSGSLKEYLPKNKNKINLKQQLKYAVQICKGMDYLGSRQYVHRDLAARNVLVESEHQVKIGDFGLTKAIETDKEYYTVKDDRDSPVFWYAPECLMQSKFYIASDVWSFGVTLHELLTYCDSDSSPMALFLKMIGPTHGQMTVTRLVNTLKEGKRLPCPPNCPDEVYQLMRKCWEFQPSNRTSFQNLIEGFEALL

Structure (SMILES)	pKi [1]	pKi [2]	pIC50 [3]
COC(=O)Nc1nn(C2(CC#N)CCN(Cc3ccc(-c4ccoc4)nc3F)CC2F)cc1C(N)=O (stereo not drawn) [Example 239, methyl N-[4-carbamoyl-1-[4-(cyanomethyl)-3-fluoro-1-[[2-fluoro-6-(3-furyl)-3-pyridyl]methyl]-4-piperidyl]pyrazol-3-yl]carbamate]	9.29	9.05	7.17
N#CCC1(n2cc(C(N)=O)c(NC(=O)C3CC3C#N)n2)CCN(Cc2cc(O)c(-c3ccccc3)cc2F)CC1F (stereo not drawn) [Example 240, 3-[(2-cyanocyclopropanecarbonyl)amino]-1-[4-(cyanomethyl)-3-fluoro-1-[(2-fluoro-5-hydroxy-4-phenyl-phenyl)methyl]-4-piperidyl]pyrazole-4-carboxamide]	9.72	9.54	7.15
CCn1ccc(-c2ccc(CN3CCC(CC#N)(n4cc(C(N)=O)c(NC(=O)OC)n4)C(F)C3)c(F)c2)n1 (stereo not drawn) [Example 241, methyl N-[4-carbamoyl-1-[4-(cyanomethyl)-1-[[4-(1-ethylpyrazol-3-yl)-2-fluoro-phenyl]methyl]-3-fluoro-4-piperidyl]pyrazol-3-yl]carbamate]	9.27	9.29	7.54
CCn1ccc(-c2ccc(CN3CCC(CC#N)(n4cc(C(N)=O)c(NC(=O)C5CC5)n4)C(F)C3)c(F)c2)n1 (stereo not drawn) [Example 242, 1-[4-(cyanomethyl)-1-[[4-(1-ethylpyrazol-3-yl)-2-fluoro-phenyl]methyl]-3-fluoro-4-piperidyl]-3-(cyclopropanecarbonylamino) pyrazole-4-carboxamide]	9.22	9.29	7.26
COC(=O)Nc1nn(C2(CC#N)CCC(N3CC(F)(c4ccccc4)C3)CC2)cc1C(N)=O (stereo not drawn) [Example 243, methyl N-[4-carbamoyl-1-[1-(cyanomethyl)-4-(3-fluoro-3-phenyl-azetidin-1-yl)cyclohexyl]pyrazol-3-yl]carbamate]	8.57	7.85	7.00
COC(=O)Nc1nn(C2(CC#N)CCN(Cc3ccc(-c4ccoc4)c(O)c3)CC2F)cc1C(N)=O (stereo not drawn) [Example 244, methyl N-[4-carbamoyl-1-[4-(cyanomethyl)-3-fluoro-1-[[4-(3-furyl)-3-hydroxy-phenyl]methyl]-4-piperidyl]pyrazol-3-yl]carbamate]	9.70	9.43	7.17
N#CCC1(n2cc(C(N)=O)c(NC(=O)C3CC3)n2)CCC(Nc2ccc(-c3ccccc3)cc2)CC1 (stereo not drawn) [Example 245, 1-[1-(cyanomethyl)-4-(4-phenylanilino)cyclohexyl]-3-(cyclopropanecarbonylamino) pyrazole-4-carboxamide]	9.64	9.04	7.85
COC(=O)Nc1nn(C2(CC#N)CCN(Cc3ccc(-c4ccc(C)o4)cc3)CC2F)cc1C(N)=O (stereo not drawn) [Example 246, methyl N-[4-carbamoyl-1-[4-(cyanomethyl)-3-fluoro-1-[[4-(5-methyl-2-furyl)phenyl]methyl]-4-piperidyl]pyrazol-3-yl]carbamate]	9.46	9.28	7.72
COC(=O)Nc1nn(C2(CC#N)CCN(Cc3ccc(-c4ccc(C)o4)c(O)c3)CC2F)cc1C(N)=O (stereo not drawn) [Example 247, methyl N-[4-carbamoyl-1-[4-(cyanomethyl)-3-fluoro-1-[[3-hydroxy-4-(5-methyl-2-furyl)phenyl]methyl]-4-piperidyl]pyrazol-3-yl]carbamate]	9.46	9.37	7.59
COC(=O)Nc1nn(C2(CC#N)CCN(Cc3c(F)cc(-c4ccccc4)c(O)c3F)CC2F)cc1C(N)=O (stereo not drawn) [Example 248, Methyl N-[4-carbamoyl-1-[4-(cyanomethyl)-1-[(2,6-difluoro-3-hydroxy-4-phenylphenyl)methyl]-3-fluoropiperidin-4-yl]-1H-pyrazol-3-yl]carbamate]	9.55	9.60	7.52
COC(=O)Nc1nn(C2(CC#N)CCN(Cc3ccc(-c4csc(C)n4)cc3)CC2F)cc1C(N)=O (stereo not drawn) [Example 249, methyl N-[4-carbamoyl-1-[4-(cyanomethyl)-3-fluoro-1-[[4-(2-methylthiazol-4-yl)phenyl]methyl]-4-piperidyl]pyrazol-3-yl]carbamate]	9.28	9.25	7.59
Cc1c(CN2CCC(CC#N)(n3cc(C(N)=O)c(NC(=O)C4CC4C#N)n3)C(F)C2)ccc(-c2ccccc2)c1O (stereo not drawn) [Example 250, 3-[(2-cyanocyclopropanecarbonyl)amino]-1-[4-(cyanomethyl)-3-fluoro-1-[(3-hydroxy-2-methyl-4-phenyl-phenyl)methyl]-4-piperidyl]pyrazole-4-carboxamide; formic acid]	9.51	9.08	7.10
COC(=O)Nc1nn(C2(CC#N)CCN(Cc3cnc(-c4ccccc4)cc3F)CC2F)cc1C(N)=O (stereo not drawn) [Example 251, methyl N-[4-carbamoyl-1-[4-(cyanomethyl)-3-fluoro-1-[(4-fluoro-6-phenyl-3-pyridyl)methyl]-4-piperidyl]pyrazol-3-yl]carbamate]	9.47	9.52	7.52
CCc1nc(-c2ccc(CN3CCC(CC#N)(n4cc(C(N)=O)c(NC(=O)OC)n4)C(F)C3)cc2)cs1 (stereo not drawn) [Example 252, methyl N-[4-carbamoyl-1-[4-(cyanomethyl)-1-[[4-(2-ethylthiazol-4-yl)phenyl]methyl]-3-fluoro-4-piperidyl]pyrazol-3-yl]carbamate]	9.52	9.28	7.66
Cc1cnn(-c2ccc(CN3CCC(CC#N)(n4cc(C(N)=O)c(NC(=O)C5CC5)n4)CC3)cc2)n1 [Example 253, 1-[4-(cyanomethyl)-1-[[4-(4-methyltriazol-2-yl)phenyl]methyl]-4-piperidyl]-3-(cyclopropanecarbonylamino) pyrazole-4-carboxamide]	9.00	8.25	7.25
C#CC1CC1C(=O)Nc1nn(C2(CC#N)CCN(Cc3ccc(-c4ccccc4)cc3)CC2F)cc1C(N)=O (stereo not drawn) [Example 254, 1-[4-(cyanomethyl)-3-fluoro-1-[(4-phenylphenyl)methyl]-4-piperidyl]-3-[(2-ethynylcyclopropanecarbonyl)amino]pyrazole-4-carboxamide]	9.37	9.09	7.37
N#CCC1(n2cc(C(N)=O)c(NC(=O)C3CC3)n2)CCN(Cc2ccc(-c3ncco3)cc2)CC1F (stereo not drawn) [Example 255, 1-[4-(cyanomethyl)-3-fluoro-1-[(4-oxazol-2-ylphenyl)methyl]-4-piperidyl]-3-(cyclopropanecarbonylamino) pyrazole-4-carboxamide]	8.92	9.02	7.15
COC(=O)Nc1nn(C2(CC#N)CCN(Cc3cc(O)c(-c4ccc(C)o4)cc3F)CC2F)cc1C(N)=O (stereo not drawn) [Example 256, methyl N-[4-carbamoyl-1-[4-(cyanomethyl)-3-fluoro-1-[[2-fluoro-5-hydroxy-4-(5-methyl-2-furyl)phenyl]methyl]-4-piperidyl]pyrazol-3-yl]carbamate]	9.82	9.05	7.33
COC(=O)Nc1nn(C2(CC#N)CCN(Cc3ccc(C4=CCCCC4)cc3)CC2F)cc1C(N)=O (stereo not drawn) [Example 257, methyl N-[4-carbamoyl-1-[4-(cyanomethyl)-1-[[4-(cyclohexen-1-yl)phenyl]methyl]-3-fluoro-4-piperidyl]pyrazol-3-yl]carbamate]	9.14	8.89	7.28
COC(=O)Nc1nn(C2(CC#N)CCN(Cc3ccc(C4=CCCCC4)c(O)c3)CC2F)cc1C(N)=O (stereo not drawn) [Example 258, methyl N-[4-carbamoyl-1-[4-(cyanomethyl)-1-[[4-(cyclohexen-1-yl)-3-hydroxy-phenyl]methyl]-3-fluoro-4-piperidyl]pyrazol-3-yl]carbamate]	9.47	9.54	7.47
C=C(C)c1ccc(CN2CCC(CC#N)(n3cc(C(N)=O)c(NC(=O)C4CC4)n3)C(F)C2)cc1 (stereo not drawn) [Example 259, 1-[4-(cyanomethyl)-3-fluoro-1-[(4-isopropenylphenyl)methyl]-4-piperidyl]-3-(cyclopropanecarbonylamino) pyrazole-4-carboxamide]	9.08	8.74	7.30
C#Cc1ccc(CN2CCC(CC#N)(n3cc(C(N)=O)c(NC(=O)C4CC4)n3)C(F)C2)cc1 (stereo not drawn) [Example 260, 1-[4-(cyanomethyl)-1-[(4-ethynylphenyl)methyl]-3-fluoro-4-piperidyl]-3-(cyclopropanecarbonylamino) pyrazole-4-carboxamide]	9.60	9.46	7.49
N#CCC1(n2cc(C(N)=O)c(NC(=O)C3CC3)n2)CCN(Cc2ccc(C3=CCCC3)cc2)CC1F (stereo not drawn) [Example 261, 1-[4-(cyanomethyl)-1-[[4-(cyclopenten-1-yl)phenyl]methyl]-3-fluoro-4-piperidyl]-3-(cyclopropanecarbonylamino) pyrazole-4-carboxamide]	9.25	9.09	7.68
COC(=O)Nc1nn(C2(CC#N)CCN(Cc3ccc(-c4ccccc4)c(O)c3F)CC2F)cc1C(N)=O (stereo not drawn) [Example 263, methyl N-[4-carbamoyl-1-[4-(cyanomethyl)-3-fluoro-1-[(2-fluoro-3-hydroxy-4-phenyl-phenyl)methyl]-4-piperidyl]pyrazol-3-yl]carbamate]	9.52	9.62	7.60
